Calls of active or inactive are those of the source. No cut-off for these calls is given here.
Target: TCF4/beta-catenin (Homo sapiens) (UniProt P35222+Q9NQB0)
Assay: Inhibition of TCF-4 ( 1 to 56 residues) (unknown origin) binding to beta-catenin/armadillo (unknown origin) at 50 uM by ITC assay
Assay type: protein-complex assay

| SMILES | inhibition |
| --- | --- |
| Cc1ccc(NC(=O)c2c(O)cc(-c3ccccc3)oc2=O)o1 | Active |
| Cc1ccc(/C=N/N=C2\C(=O)N(c3ccncc3)c3ccccc32)o1 | Active |
| Cc1ccc(Nc2cccc(-c3ccccc3Oc3ccccc3)c2)o1 | Active |
| C/C(=N\NC(=O)COc1ccccc1)c1ccc(C)s1 | Active |
| COc1cccc2c1CCc1sc(N(CCOC(C)CCc3ccccc3)C(C)=O)nc1-2 (centres undefined) | Active |
| O=c1oc(-c2ccccc2)cc(O)c1/C=C/c1nnc(Br)o1 | Active |
| O=C(c1ccc(Br)o1)N1CCN(C(c2ccccc2)c2ccccc2)CC1 | Active |
| Cc1ccc(/C=N/Nc2cc(C(=O)NCCc3ccccc3)cc3c2CCc2ccncc2-3)o1 | Active |
| O=C(c1ccncc1)N1CCC(=Cc2ccccc2OCc2ccc(Br)o2)CC1 | Active |
| Cc1cc(CNC(=O)/C=C2\C(=O)N(c3ccncc3)c3ccccc32)on1 | Active |
| Cc1ccc(CCc2ccc3[nH]c(-c4cccs4)cc3c2)o1 | Active |
| Cc1ccc(/C(=N\NC(=O)c2ccccc2Oc2ccccc2)c2ccccn2)o1 | Active |
| CS(=O)(=O)N(CCOCCc1ccccc1)c1nc2c([nH]1)CCc1ccccc1-2 | Active |
| Cc1ccc(/C=N/n2c(=O)n(-c3ccncc3)c(=O)c3ccccc32)o1 | Active |
| C/C(=N\NC(=O)OCc1ccccc1)c1cc(C)cs1 | Active |
| CC(=O)N(CCCC(C)c1ccccc1)c1nc2c(s1)CCc1ccccc1-2 (centres undefined) | Active |
| Cc1ccc(CNC(=O)/C=C2\C(=O)N(c3ccncc3)c3ccccc32)o1 | Active |
| Cc1cc(NC(=O)c2c(O)cc(Oc3ccccc3)oc2=O)on1 | Active |
| Cc1cc(-c2onc(C)c2COC(=O)Nc2ccccc2)no1 | Active |
| Nc1n[nH]c(CC2CN(c3ccc(N4CCNCC4)c(Cl)c3)C(=O)N2)n1 (centres undefined) | Active |

| SMILES | inhibition |
| --- | --- |
| Cc1ccc(/C(=N\NC(=O)c2ccccc2Oc2ccccc2)c2ccccc2)s1 | Active |
| Cc1ccc(-c2ccc3ccc(Oc4ccncc4)cc3c2)o1 | Active |
| O=C(CCNS(=O)(=O)c1ccccc1)NNS(=O)(=O)Cc1ccc(Cl)s1 | Active |
| Cc1cc(/C(=C\c2ccccc2)c2ccc(OCCN3CCCC3)cc2)on1 | Active |
| Cc1ccc(/C=C/c2ccc3[nH]c(-c4ccco4)cc3c2)o1 | Active |
| O=S(=O)(c1ccc(OCc2cnc(Cl)s2)cc1)N1CCOCC1 | Active |
| O=C(Nc1nnc(Br)o1)c1c(O)cc(-c2ccccc2)oc1=O | Active |
| Cc1ccc(/C=N/c2cccc3c(-c4ccncc4)ccnc23)o1 | Active |
| Cc1cc(NC(=O)NC(=O)c2nnc(-c3ccccc3)o2)no1 | Active |
| Cc1ccc(CCc2ccc3[nH]c(-c4ccco4)cc3c2)o1 | Active |
| Nc1n[nH]c(CC2CN(c3ccc(N4CCOCC4)c(F)c3)C(=O)O2)n1 (centres undefined) | Active |
| Oc1nnc(CCCc2ccc(Oc3ccccc3)cc2)o1 | Active |
| CS(=O)(=O)N(CCCCOc1ccccc1)c1nc2c(s1)CCc1ccccc1-2 | Active |
| Cc1cc(NC(=O)c2ccc(Oc3ccccc3)cc2)on1 | Active |
| Cc1ccc(C(=O)N2CCN(C(c3ccccc3)c3ccccc3)CC2)s1 | Active |
| Cc1ccc(/C(=N\NC(=O)c2ccccc2Nc2ccccc2)c2ccccc2)o1 | Active |
| Cc1ccc(COc2ccccc2C=C2CCN(S(=O)(=O)c3ccncc3)CC2)o1 | Active |
| Cc1nnc(-c2sc3nc(-c4ccc(Cl)cc4)nn3c2C)o1 | Active |
| Cc1ccc(/C=N/NC(=O)c2ccccc2Oc2ccccc2)o1 | Active |
